How the values were obtained:
DIGSA (large crabgrass) = assay: Pre-plant incorporated (PPI) herbicidal activity, warm season; format: in vivo, Digitaria sanguinalis; settings: for PPI activity GR80, DIGSA: pre-plant incorporated, lowest tested rate with 80% or greater inhibition, about 14 days; for Percent inhibition DIGSA: PPI application
Method: (§1) In another set of tests, the pre-plant incorporated (PPI) activity of compounds of this invention was evaluated on the same species as for the pre-emergence tests described above. In the PPI tests the following procedure, designed to simulate PPI application, was used.
(§2) A pre-prepared topsoil mixture (described above) was placed in a pot and compacted to a depth of 1.0 to 1.25 cm from the top of the pot. Seeds of each of several monocotyledonous and dicotyledonous annual plant species were placed on top of the soil. A sufficient quantity of soil to cover the seeds and level fill the pot was weighed into an open container. A known amount of the test compound was dissolved or suspended in an organic solvent and applied by spraying to this cover soil. The cover soil was thoroughly mixed to distribute the test compound throughout the cover soil, and was then applied as a cover layer over the seeds. Untreated soil was used as a cover layer for control pots. After treatment the plants were placed in a greenhouse where they received 0.64 cm of overhead irrigation. All subsequent watering consisted of a light overhead mist and/or subirrigation as needed for germination and growth. Tables 9 and 10 below relate to warm season plant species which were placed after pre-emergence treatment in a greenhouse with a 30/21° C. day/night temperature regime. Tables 11 and 12 below relates to cool season plant species placed after pre-emergence treatment in a greenhouse or growth chamber with an 18/13° C. day/night temperature regime. Only the compounds of Examples 1, 6, 8, 11, 13 and 15-20 were included in PPI tests.
(§3) Approximately 14 days after planting and treating, the plants were observed and herbicidal efficacy recorded as percent inhibition by comparison with untreated plants.

ALOMY (blackgrass) = assay: Pre-emergence herbicidal activity, cool season; format: in vivo, Alopecurus myosuroides; settings: GR80 = lowest tested rate (300, 100, 30, 10 g/ha) with 80% or greater inhibition; approx. 14 days after treating; 18/13° C.
How it was run: (§4)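 Activity is expressed as the rate giving 80% inhibition, with 300, 100, 30 and 10 g/ha typically tested. An asterisk marks activity short of 80% at the top rate. Warm-season grasses were held at 30/21 °C; cool-season blackgrass and wild buckwheat at 18/13 °C; scoring at about 14 days.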

[1] = system: VERPE (creeping speedwell); assay: Pre-emergence herbicidal activity, cool season; format: in vivo, Veronica persicaria; settings: lowest tested rate with 80% or greater inhibition; rates 300, 100, 30, 10 g/ha; about 14 days
How it was run: (§5)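 GR80 values derive from percent inhibition relative to untreated plants, read roughly 14 days after sowing and pre-emergence soil-surface treatment (compound in 50:50 acetone/water; rates typically 10, 30, 100, 300 g/ha). Warm-season weeds grew at 30/21° C day/night, cool-season ones at 18/13° C; an asterisk marks activity without reaching 80% at the highest rate.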

SETFA (giant foxtail) [2] = assay: Pre-plant incorporated (PPI) herbicidal activity, warm season; format: in vivo, Setaria faberi; settings: for PPI activity GR80, SETFA: pre-plant incorporated, lowest tested rate with 80% or greater inhibition, about 14 days; for Percent inhibition SETFA: PPI application
Method: as §1, §2, §3

[3] = system: SORHA (johnsongrass (seedling)); assay: as above; format: in vivo, Sorghum halepense; settings: for PPI activity GR80, SORHA: pre-plant incorporated, lowest tested rate with 80% or greater inhibition, about 14 days; for Percent inhibition SORHA: PPI application
Method: as §1, §2, §3

[4] = system: GALAP (catchweed bedstraw); assay: Pre-emergence herbicidal activity, cool season; format: in vivo, Galium aparine; settings: lowest tested rate with 80% or greater inhibition; rates 300, 100, 30, 10 g/ha; about 14 days
How it was run: as §5

SINAR (wild mustard) = assay: Pre-plant incorporated (PPI) herbicidal activity, cool season; format: in vivo, Sinapis arvensis; settings: for PPI activity GR80, SINAR: pre-plant incorporated, lowest tested rate with 80% or greater inhibition, about 14 days; for Percent inhibition SINAR: weed, PPI application
Method: as §1, §2, §3

ECHCG (barnyardgrass) = assay: Pre-emergence herbicidal activity, warm season; format: in vivo, Echinochloa crus-galli; settings: GR80 = lowest tested rate (300, 100, 30, 10 g/ha) with 80% or greater inhibition; approx. 14 days after treating; 30/21° C.
How it was run: as §4

SETFA (giant foxtail) [5] = assay: Pre-emergence herbicidal activity, warm season; format: in vivo, Setaria faberi; settings: GR80 = lowest tested rate (300, 100, 30, 10 g/ha) with 80% or greater inhibition; approx. 14 days after treating; 30/21° C.
How it was run: as §4

barley (HORVX) = assay: Selectivity test, PPI, cool season crop; format: in vivo, Hordeunm vulgare; settings: PPI application
Method: as §2, §3
(§6) Additional pre-emergence and PPI tests were conducted by the procedures described above, on warm and cool season weed species in the presence of crop species, to assess herbicidal selectivity. Crop species included in warm season tests were corn (Zea mays, ZEAMX), rice (Oryza sativa, ORYSA) and soybean (Glycine max, GLYMX). Crop species included in cool season tests were wheat (Triticum aestivum, TRZAW), barley (Hordeunm vulgare, HORVX) and oilseed rape (Brassica napus, BRSNS).
(§7) Tables 15 and 16 relate to pre-emergence and PPI tests respectively on warm season species. Table 17 relates to pre-emergence tests on cool season species.

corn (ZEAMX) = assay: Selectivity test, PPI, warm season crop; format: in vivo, Zea mays; settings: PPI application
Method: as §2, §3, §6, §7

With `CCN(CC)C(=O)n1cnc(S(=O)(=O)C(F)(F)C(=O)c2ccccc2)n1` [Example 6] the “PPI activity GR80, DIGSA” value (DIGSA (large crabgrass)) was 100 g/ha, the “Pre-emergence activity (GR80) ALOMY” value (ALOMY (blackgrass)) was 100 g/ha and the “Pre-emergence activity GR80, VERPE” value [1] was 300 g/ha. The “PPI activity GR80, SETFA” value (SETFA (giant foxtail) [2]) was 100 g/ha, the “PPI activity GR80, SORHA” value [3] was 100 g/ha and the “Pre-emergence activity GR80, GALAP” value [4] was 100 g/ha. For the same compound, the “PPI activity GR80, SINAR” value (SINAR (wild mustard)) was 300 g/ha, the “Pre-emergence activity (GR80) ECHCG” value (ECHCG (barnyardgrass)) was “* (activity observed, at least at highest rate, but <80% inhibition)” and the “Pre-emergence activity (GR80) SETFA” value (SETFA (giant foxtail) [5]) was “* (activity observed, at least at highest rate, but <80% inhibition)”.
`CCN(CC)C(=O)n1cnc(S(=O)(=O)C(F)(F)SCC(=O)OC)n1` [Example 11] was tested, and the “Percent inhibition DIGSA” value (DIGSA (large crabgrass); 10 g/ha) was 0%, the “Percent inhibition DIGSA” value (DIGSA (large crabgrass); 30 g/ha) was 0% and the “Percent inhibition DIGSA” value (DIGSA (large crabgrass); 100 g/ha) was 70%. The “Percent inhibition DIGSA” value (DIGSA (large crabgrass); 300 g/ha) was 90%, the “Percent inhibition DIGSA” value (DIGSA (large crabgrass); 900 g/ha) was 100% and the “PPI activity GR80, DIGSA” value (DIGSA (large crabgrass)) was 300 g/ha. For the same compound, the “Percent inhibition HORVX” value (barley (HORVX); 10 g/ha) was 0%, the “Percent inhibition HORVX” value (barley (HORVX); 30 g/ha) was 0% and the “Percent inhibition HORVX” value (barley (HORVX); 100 g/ha) was 0%. The “Percent inhibition HORVX” value (barley (HORVX); 300 g/ha) was 0%, the “Percent inhibition HORVX” value (barley (HORVX); 900 g/ha) was 10% and the “Pre-emergence activity (GR80) ALOMY” value (ALOMY (blackgrass)) was 300 g/ha. For the same compound, the “Pre-emergence activity GR80, VERPE” value [1] was 100 g/ha, the “Percent inhibition SETFA” value (SETFA (giant foxtail) [2]; 10 g/ha) was 0% and the “Percent inhibition SETFA” value (SETFA (giant foxtail) [2]; 30 g/ha) was 0%. The “Percent inhibition SETFA” value (SETFA (giant foxtail) [2]; 100 g/ha) was 90%, the “Percent inhibition SETFA” value (SETFA (giant foxtail) [2]; 300 g/ha) was 60% and the “Percent inhibition SETFA” value (SETFA (giant foxtail) [2]; 900 g/ha) was 100%. For the same compound, the “PPI activity GR80, SETFA” value (SETFA (giant foxtail) [2]) was 300 g/ha, the “Percent inhibition SORHA” value ([3]; 10 g/ha) was 0% and the “Percent inhibition SORHA” value ([3]; 30 g/ha) was 0%. For the same compound, the “Percent inhibition SORHA” value ([3]; 100 g/ha) was 30%, the “Percent inhibition SORHA” value ([3]; 300 g/ha) was 80% and the “Percent inhibition SORHA” value ([3]; 900 g/ha) was 100%. For the same compound, the “PPI activity GR80, SORHA” value [3] was 300 g/ha, the “Pre-emergence activity GR80, GALAP” value [4] was “[empty]” and the “PPI activity GR80, SINAR” value (SINAR (wild mustard)) was 100 g/ha. The “Percent inhibition SINAR” value (SINAR (wild mustard); 10 g/ha) was 0%, the “Percent inhibition SINAR” value (SINAR (wild mustard); 30 g/ha) was 0% and the “Percent inhibition SINAR” value (SINAR (wild mustard); 100 g/ha) was 0%. For the same compound, the “Percent inhibition SINAR” value (SINAR (wild mustard); 300 g/ha) was 0%, the “Percent inhibition SINAR” value (SINAR (wild mustard); 900 g/ha) was 99% and the “Pre-emergence activity (GR80) ECHCG” value (ECHCG (barnyardgrass)) was “* (activity observed, at least at highest rate, but <80% inhibition)”. The “Percent inhibition ZEAMX” value (corn (ZEAMX); 10 g/ha) was 0%, the “Percent inhibition ZEAMX” value (corn (ZEAMX); 30 g/ha) was 0% and the “Percent inhibition ZEAMX” value (corn (ZEAMX); 100 g/ha) was 0%. For the same compound, the “Percent inhibition ZEAMX” value (corn (ZEAMX); 300 g/ha) was 0% and the “Percent inhibition ZEAMX” value (corn (ZEAMX); 900 g/ha) was 10%.

Reference: US6461997B1, “Triazole sulfones having herbicidal activity” (Monsanto Technology LLC, priority 1999, dated 2002)
